Experimental data as given in ChEMBL document CHEMBL2073847, “Inhibition of the CYP3A4-mediated metabolism and P-glycoprotein-mediated transport of the HIV-1 protease inhibitor saquinavir by grapefruit juice components” (Br J Clin Pharmacol, 1999).

Assays:
[1] = molecular target: T1, ATP-dependent translocase ABCB1 (Homo sapiens, UniProt P08183); assay: TP_TRANSPORTER: transepithelial transport (basal to apical) in Caco-2 cells; type: functional, cell-based
[2] = molecular target: T1, ATP-dependent translocase ABCB1; assay: TP_TRANSPORTER: inhibition of Saquinavir transepithelial transport (basal to apical) in Caco-2 cells; type: functional, cell-based

T1 sequence (P08183 whole entry): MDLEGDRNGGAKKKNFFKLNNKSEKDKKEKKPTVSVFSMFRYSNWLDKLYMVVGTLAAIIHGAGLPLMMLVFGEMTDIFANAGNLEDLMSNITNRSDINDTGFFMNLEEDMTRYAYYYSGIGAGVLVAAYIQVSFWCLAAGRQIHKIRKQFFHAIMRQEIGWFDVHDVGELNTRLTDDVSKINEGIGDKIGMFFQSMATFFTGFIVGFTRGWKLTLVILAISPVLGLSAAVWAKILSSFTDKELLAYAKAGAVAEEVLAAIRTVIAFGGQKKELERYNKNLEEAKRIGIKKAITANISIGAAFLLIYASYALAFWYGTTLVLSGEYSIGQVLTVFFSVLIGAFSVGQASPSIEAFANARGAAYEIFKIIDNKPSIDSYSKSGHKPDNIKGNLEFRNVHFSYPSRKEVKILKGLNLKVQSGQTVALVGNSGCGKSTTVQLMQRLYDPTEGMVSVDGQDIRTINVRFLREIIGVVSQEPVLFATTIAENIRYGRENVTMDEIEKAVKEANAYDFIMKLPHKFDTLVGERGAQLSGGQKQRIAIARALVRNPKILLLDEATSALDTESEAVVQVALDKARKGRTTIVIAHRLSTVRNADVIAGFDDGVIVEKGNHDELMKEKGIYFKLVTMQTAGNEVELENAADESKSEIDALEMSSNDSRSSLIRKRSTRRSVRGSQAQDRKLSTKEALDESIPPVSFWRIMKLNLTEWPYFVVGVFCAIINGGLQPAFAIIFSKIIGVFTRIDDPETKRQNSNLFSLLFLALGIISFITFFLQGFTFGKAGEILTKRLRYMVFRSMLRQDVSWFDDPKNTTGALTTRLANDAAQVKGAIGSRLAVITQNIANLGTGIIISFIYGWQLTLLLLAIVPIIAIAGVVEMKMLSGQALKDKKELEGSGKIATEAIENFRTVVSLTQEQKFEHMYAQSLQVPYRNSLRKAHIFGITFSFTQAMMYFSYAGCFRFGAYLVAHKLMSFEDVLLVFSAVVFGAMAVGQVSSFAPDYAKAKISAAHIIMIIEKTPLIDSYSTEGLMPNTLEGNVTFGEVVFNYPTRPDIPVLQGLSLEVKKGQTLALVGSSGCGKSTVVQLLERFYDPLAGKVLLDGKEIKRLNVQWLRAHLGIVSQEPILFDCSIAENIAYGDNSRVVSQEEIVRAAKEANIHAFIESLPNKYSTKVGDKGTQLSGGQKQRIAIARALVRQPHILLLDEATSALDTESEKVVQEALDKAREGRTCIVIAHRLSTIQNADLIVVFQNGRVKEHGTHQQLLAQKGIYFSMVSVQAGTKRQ

Row | Structure (SMILES) | Activity [1] | Activity [2]
1 | O=C1C[C@@H](c2ccc(O)cc2)Oc2cc(O)cc(O)c21 [NARINGENIN] | – | inhibitor [+]
2 | CC(C)=CCC/C(C)=C/COc1c2ccoc2cc2oc(=O)ccc12 [BERGAMOTTIN] | – | is not an inhibitor [-]
3 | C/C(=C\COc1c2ccoc2cc2oc(=O)ccc12)CC[C@@H](O)C(C)(C)O | – | is not an inhibitor [-]

Second part, the compound after the results:

Row | Activity [1] | Activity [2] | Structure (SMILES)
4 | substrate [+] | – | CC(C)(C)NC(=O)[C@@H]1C[C@@H]2CCCC[C@@H]2CN1C[C@@H](O)[C@H](Cc1ccccc1)NC(=O)[C@H](CC(N)=O)NC(=O)c1ccc2ccccc2n1 [SAQUINAVIR]
5 | – | inhibitor [+] | C[C@@H]1O[C@@H](O[C@H]2[C@H](Oc3cc(O)c4c(c3)O[C@H](c3ccc(O)cc3)CC4=O)O[C@H](CO)[C@@H](O)[C@@H]2O)[C@H](O)[C@H](O)[C@H]1O [NARINGIN]
